CC1=C(C(=O)O)N2C(=O)[C@@H](NC(=O)[C@H](N)C3=CCC=CC3)[C@H]2SC1
solubility (mole fraction)
Conditions	283.15 K	285.15 K	288.15 K	291.15 K	293.15 K	298.15 K	303.15 K	308.15 K
in ethanol	0.000187	0.000195	0.000217	0.000233	0.000249	0.000299	0.000368	0.000442
in methanol	0.000575	0.00061	0.00065	0.000702	0.000738	0.000845	0.000955	0.00108
in n-butanol	0.000265	0.000288	0.000335	0.000369	0.000405	0.000478	0.000567	0.000657
in n-propanol	0.00019	0.000198	0.000214	0.000238	0.000253	0.000319	0.000381	0.000469
in water	0.00114	–	0.00115	–	0.00116	0.00117	0.00118	0.0012

Reference: BigSolDB 2.1
